Reference: publication PMC7070731, “Cytotoxic Activity of Organotin(IV) Derivatives with Triazolopyrimidine Containing Exocyclic Oxygen Atoms” (Molecules, 2020)

What was measured:
[1] = system: HCT-116 (human colorectal carcinoma) cells; test: MTT cytotoxicity assay, HCT-116; type: cell-based; details: for Influence on cell growth / viability, HCT-116: 24 h, 0.01–1 µM range; for IC50: 24 h treatment, read-out: IC50 (nM ± SD) HCT-116
Description: (§1) HTC116 (human colorectal carcinoma), HepG2 (human hepatocellular carcinoma), MCF-7 (human breast cancer), 16-HBE (human bronchial epithelium) and Caco-2 (human colorectal carcinoma) cell lines were purchased from American Type Culture Collection, Rockville, MD, USA. All cell lines were grown in RPMI medium supplemented with L-glutamine (2 mM), 10% fetal bovine serum (FBS), penicillin (100 U/mL), streptomycin (100 µg/mL) and gentamicin (5 μg/mL). Cells were maintained in log phase by seeding twice a week at a density of 3 × 10^8 cells/L in humidified 5% CO2 atmosphere, at 37 °C. In all experiments, after plating, cells were allowed to adhere overnight and then treated with the compounds or vehicle alone (control cells), whereas Caco-2 cells were treated 15 days after confluence, at which time the cells are differentiated in normal intestinal-like cells. No differences were found between cells treated with DMSO 0.1% and untreated cells in terms of cell number and viability.
(§2) Cytotoxic activity of the organotin compounds against human tumor cell lines (HCT-116, HepG2 and MCF-7) and human normal cells (16-HBE and intestinal-like differentiated Caco2 cells) was determined using the MTT colorimetric assay based on the reduction of 3-(4,5-dimethyl-2-thiazolyl)bromide-2,5-diphenyl-2H-tetrazolium (MTT) to purple formazan using mitochondrial dehydrogenases of living cells, as reported. This method is commonly used to illustrate inhibition of cellular proliferation. Monolayer cultures were treated for 24 h with various concentrations (0.01-1 µM) of the drugs. Cisplatin was used for comparison. Briefly, all cell lines were seeded at 1.0 × 10^4 cells/well in 96-well plates containing 200 μL RPMI. When appropriated, cells were washed with fresh medium and incubated with the compounds in RPMI. After incubation, cells were washed, and 50 μL FBS-free medium containing 5 mg/mL MTT was added. The medium was discarded after a 2 h incubation at 37 °C by centrifugation, and formazan blue formed in the cells was dissolved in DMSO. The absorbance, measured at 570 nm in a microplate reader (Bio-RAD, Hercules, CA, USA) of MTT formazan of control cells was taken as 100% of viability. The growth inhibition activity of compounds was estimated by comparison with the not-treated control. The values for the inhibitory concentration for 50% of the tested compounds (IC50) were calculated using a sigmoidal model using GraphPad Prism 5.02 from GraphPad Software (San Diego, CA, USA). Each experiment was repeated three times in triplicate to obtain the mean values.

[2] = system: HepG2 (human hepatocellular cancer) cells; test: MTT cytotoxicity assay, HepG2; type: cell-based; details: for Influence on cell growth / viability, HepG2: 24 h, 0.01–1 µM range; for IC50: 24 h treatment, read-out: IC50 (nM ± SD) HepG2
Description: as §1, §2

[3] = system: MCF-7 (human breast cancer) cells; test: MTT cytotoxicity assay, MCF-7; type: cell-based; details: for Influence on cell growth / viability, MCF-7: 24 h, 0.01–1 µM range; for IC50: 24 h treatment, read-out: IC50 (nM ± SD) MCF-7
Description: as §1, §2

[4] = system: intestinal normal-like differentiated Caco-2 cells; test: MTT viability assay, normal-like differentiated Caco-2 cells; type: cell-based, human; details: 24 h; for Effect on cell survival, normal-like differentiated Caco-2 cells: MTT, reduction seen in the 1–10 μM range; for CC50: differentiated Caco-2, MTT, concentration lethal to 50% of the normal cells, read-out: Normal-Like Intestinal Cells LC50
Description: as §1
as §2, with “Monolayer cultures were treated for 24 h with various concentrations (0.01-1 µM) of the drugs.” left out
(§3) Formazan of control cells was taken as 100% viability and the 50% lethal concentrations of the synthesized complexes (LC50) were determined by plotting the graph of cell viability versus the concentrations. The selectivity index (SI) values were calculated for each compound by dividing the LC50 of normal differentiated Caco2 or 16-HBE cells by the IC50 of HCT-116 tumor cells. Each experiment was repeated three times in triplicate.

[5] = system: human bronchial epithelial cells (16-HBE); test: MTT viability assay, 16-HBE cells; type: cell-based; details: 24 h; for CC50: concentration lethal to 50% of the normal cells, read-out: 16-HBE Cells LC50; for Effect on cell survival, 16-HBE cells: reduction seen in the 1–10 μM range
Description: as §1
as §2, with “Monolayer cultures were treated for 24 h with various concentrations (0.01-1 µM) of the drugs.” left out
as §3

HCT-116 cells [6] = test: Mitochondrial transmembrane potential, DiOC6 flow cytometry; type: cell-based, human; details: 24 h, control 3.2%
Description: Mitochondrial transmembrane potentials (Δψm) were assessed using flow cytofluorometry, with the cationic lipophilic dye 3,3′-dihexyloxacarbocyanine iodide(3) (DiOC6) (Molecular Probes, Inc., Life Technologies Italia, Monza, Italy), which accumulates in the mitochondrial matrix. Changes in mitochondrial membrane potential are indicated by a reduction in the DiOC6-induced fluorescence intensity. After 24 h treatment, cells were incubated with DiOC6 at a 40 nmol/L final concentration, for 15 min at 37 °C. After centrifugation, cells were washed with phosphate buffer saline (PBS) and suspended in 500 μL PBS. Then, samples of 1.0 × 10^4 cells were subjected to FACS analysis.

HCT-116 cells [7] = test: Intracellular ROS, DCFH-DA flow cytometry; type: cell-based, human; details: 24 h, control 1.9%
Description: ROS level was monitored by measuring fluorescence changes that resulted from intracellular oxidation of 2′,7′-dichlorofluorescin diacetate (DCFH-DA). DCFH-DA, at 10 μM final concentration, was added to the cell medium 30 min before the end of the treatment. The cells were collected using centrifugation for 5 min at 2000 rpm at 4 °C, washed, suspended in PBS and immediately subjected to FACS analysis. At least 1 × 10^4 cells were analyzed for each sample.

HCT-116 cells [8] = test: Cell cycle analysis, propidium iodide flow cytometry; type: cell-based, human; details: HCT-116, 24 h of treatment
Description: Cell cycle stage was analyzed using flow cytometry. Aliquots of 1.0 × 10^6 cells were harvested using centrifugation, washed with PBS and incubated in the dark in a PBS solution containing Triton X100 (0.1%, v/v), 20 μg/mL propidium iodide (PI) and 200 µg/mL RNase, for 30 min, at room temperature. Then, samples were immediately subjected to FACS analysis. At least 1 × 10^4 events were analyzed for each sample.

p53 = test: Western blot, p53 level in HCT 116 cells; type: cell-based, human; details: 24 h, immunoblotting
Description: (§4) After treatment with the compound, protein extracts were prepared and equal amounts of protein samples (80 μg/lane), subjected to SDS-PAGE, were transferred to nitrocellulose membrane as previously reported. The immunoblot was incubated overnight at 4 °C with blocking solution (5% skim milk), followed by incubation with anti-p21 (F-5, Cat No SC-6246 Santa Cruz Biotechnology) or anti-p53 (DO-1, Cat No SC-126, Santa Cruz Biotechnology) for 1 h at room temperature. Blots were washed two times with Tween 20/Tris-buffered saline (TTBS) and incubated with a 1:2000 dilution of horseradish peroxidase (HRP)-conjugated anti-IgG antibody (Dako Denmark, Glostrup, Denmark) for 1 h at room temperature. Blots were again washed five times with TTBS and then developed using enhanced chemiluminescence (Amersham Life Science, Arlington Heights, IL, USA.). Immunoreactions were also performed using β-actin antibody as loading controls.

p21^WAF1 = test: Western blot, p21WAF1 level in HCT 116 cells; type: cell-based, human; details: 24 h, immunoblotting
Description: as §4

Molecule	Influence on cell growth / viability, HCT-116 [1]	IC50 [1]	Influence on cell growth / viability, HepG2 [2]	IC50 [2]	Influence on cell growth / viability, MCF-7 [3]	IC50 [3]	Effect on cell survival, normal-like differentiated Caco-2 cells [4]	CC50 [4]	CC50 [5]	Effect on cell survival, 16-HBE cells [5]	Cells with dissipated mitochondrial membrane potential (HCT-116 cells [6]; 0.1 μM)	AY, ROS production (DCFH-DA fluorescent cells) (HCT-116 cells [7]; 0.1 μM)	Effect on cell cycle distribution (HCT-116 cells [8])	Effect on level of p53 (p53)	Effect on level of p21 (p21^WAF1)	Cells with dissipated mitochondrial membrane potential (HCT-116 cells [6]; 20 μM)	AY, ROS production (DCFH-DA fluorescent cells) (HCT-116 cells [7]; 20 μM)
[CH3][Sn]([CH3])([CH3])[O]c1ccn2ncnc2n1 [Compound 1, Me3Sn(5tpO)]	no influence on cell growth	> 1000 nM	no influence on cell growth	> 1000 nM	no influence on cell growth	> 1000 nM	–	–	–	–	–	–	–	–	–	–	–
n-Bu3Sn(HtpO2) [Compound 5]	–	101 ± 11 nM	–	117 ± 10 nM	–	487 ± 47 nM	reduction of the cell survival	12000 ± 1000 nM	22000 ± 1000 nM	reduction of the cell survival	18.3%	20.2%	block of cell duplication in the G0/G1 phase	did not vary	did not vary	–	–
CCC[CH2][Sn]([CH2]CCC)([CH2]CCC)[O]c1ccn2ncnc2n1 [Compound 2, n-Bu3Sn(5tpO)]	–	70 ± 8 nM	–	70 ± 6 nM	–	233 ± 21 nM	reduction of the cell survival	6000 ± 400 nM	17000 ± 1000 nM	reduction of the cell survival	23.5%	22.5%	block of cell duplication in the G0/G1 phase	did not vary	did not vary	–	–
Cc1cc([O][Sn]([CH3])([CH3])[CH3])n2ncnc2n1 [Compound 3, Me3Sn(mtpO)]	no influence on cell growth	> 1000 nM	no influence on cell growth	> 1000 nM	no influence on cell growth	> 1000 nM	–	–	–	–	–	–	–	–	–	–	–
Ph3Sn(HtpO2) [Compound 6]	–	60 ± 5 nM	–	63 ± 5 nM	–	102 ± 9 nM	did not affect the cell viability at any assayed concentration	–	–	did not affect the cell viability at any assayed concentration	25.1%	25.3%	cell cycle arrest in phase G2/M	–	–	–	–
CCC[CH2][Sn]([CH2]CCC)([CH2]CCC)[O]c1cc(C)nc2ncnn12 [Compound 4, n-Bu3Sn(mtpO)]	–	34 ± 3 nM	–	53 ± 6 nM	–	118 ± 10 nM	reduction of the cell survival	5000 ± 400 nM	11000 ± 1000 nM	reduction of the cell survival	28.5%	27.3%	block of cell duplication in the G0/G1 phase	did not vary	did not vary	–	–
N.N.[Cl][Pt][Cl] [Cisplatin, reference compound]	–	46000 nM	–	65000 nM	–	10000 nM	–	–	–	–	–	–	–	–	–	17.4%	23.5%
